What was measured:
Format in all cases: in vivo
[1] = tested on: adult P. argentipes; assay: Adult sand fly bioassay, bloodfeeding on fipronil treated B. bengalensis; conditions: for Time after 1 hour exposure to 100% mortality of adult P. argentipes: bloodfeeding 20 days after treatment; for Adult sand fly mortality: across treatment groups
Description: (§1) The B. bengalensis fipronil study was conducted in two portions. In the first of the two segments, three randomly selected B. bengalensis were offered a fipronil (250 ppm) treated diet at 25 g daily. One rat served as control and was fed an untreated diet. In the second portion of the study, the remaining animals were randomly divided into two groups of two. Two individuals in the first group were offered 25 g of 100 ppm fipronil-treated feed each and two rats in the second group were each offered 25 g of 50 ppm fipronil-treated diet. One rat served as control and was fed an untreated diet.
(§2) Test animals were provided treated feed for two consecutive days. Diets were prepared by utilizing locally available poultry feed treated with technical grade fipronil to predetermined concentrations. Consumption was calculated daily, feed refilled to a predetermined level of 25 g, and feces cleared. At the end of the second day, treated feed was cleared, final consumption weighed, and feed replaced with untreated locally available poultry feed. Feces were collected, noted as day-1 post-treatment and properly stored for use in assays. Observation of test animals continued for twenty days post-treatment, with additional collection of feces for testing conducted 5, 10, and 20 days post-treatment. On days when fecal collection occurred, all newspaper/bedding was replaced at 0800 hours and feces collected at the end of the day for preservation. Collected feces were dried overnight at approximately 40° C., ground into a fine powder with a pestle and mortar and frozen at −20° C. until larval bioassays were initiated.
Adult sand fly bioassays were conducted 1, 5, 10 and 20 days post feed-through treatment of B. bengalensis. B. bengalensis were anesthetized with 15 units of ketamine (KetaJet 50, SterFil Laboratories Pvt. Ltd., Ankleshwar, India) via intramuscular injection. The belly of each rat was shaved using an electric razor and a mesh covered plastic capsule (20 mm diameter, 25 mm height) containing 20 adult female and 5 adult male P. argentipes was affixed to the shaved area with medical tape. The capsules had about 10 small holes burned into the top with a heated 24 gauge needle. Capsules remained in place for one hour, covered with a light cloth to maintain warmth and reduce light. At the end of one hour, the capsules were removed and observations for mortality conducted immediately, at 12 hours post-feeding, and every 24 hours thereafter for up to 5 days post-exposure. Partially fed sand flies were included in analyses as “bloodfed” specimens. Unfed sand flies were removed, and bloodfed sand flies were observed collectively by treatment group.

[2] = tested on: P. argentipes first instar larvae; assay: Larval bioassay with feces of fipronil treated B. bengalensis; conditions: for Mean ± SEM survival (days) of P. argentipes larvae during exposure to treated feces D-1 / Mean ± SEM survival (days) of P. argentipes larvae during exposure to treated feces D-5 / Mean ± SEM survival (days) of P. argentipes larvae during exposure to treated feces D-10 / Mean ± SEM survival (days) of P. argentipes larvae during exposure to treated feces D-20: B. bengalensis; for Mean ± SEM survival (days) of P. argentipes larvae during exposure to treated feces D-1: feces 1 day post-treatment; for Mean ± SEM survival (days) of P. argentipes larvae during exposure to treated feces D-5: feces 5 days post-treatment; for Mean ± SEM survival (days) of P. argentipes larvae during exposure to treated feces D-10: feces 10 days post-treatment; for Mean ± SEM survival (days) of P. argentipes larvae during exposure to treated feces D-20: feces 20 days post-treatment
Description: as §1, §2
Larval bioassay jars were prepared using 48 mm, 100 g round Dibbi jars (Pearlpet, Pearl Polymers LTD., New Delhi, India). Jars were prepared by burning three small holes into the bottom of the container with a soldering iron. A thin layer (approximately 5 mm) of plaster of Paris was cast on the bottom and wetted to ensure humidity and softening of the test diet. To simplify mortality counts, the plaster was quartered, and each quadrant numbered one through four, using an ultra fine black marker. The lids of the jars were punctured with 15-20 small holes using a heated 24-gauge hypodermic needle.
Each bioassay jar was loaded with ten one to two day old first instar P. argentipes larvae. Approximately 5 mg treated feces were sprinkled evenly over the plaster. Larval bioassay samples were maintained in a controlled environment at approximately 24° C. with relative humidity maintained at approximately 80% through daily moistening of paper towels underneath the jars. Any observed mold or mites were removed during each day's observation. Each bioassay group included one control jar with larvae provided standard larval food consisting of rabbit feed, rabbit pellets, and dried chicken blood which were mixed, dried, composted, and crushed. Mortality counts of larvae were conducted every 24 hours post-exposure until 100% mortality or pupation was observed. Larvae were considered dead if no physical response was observed within 15 seconds of light stimulation with a blunt probe.

[3] = Cattle dosing, observation for adverse effects; conditions: 0.5, 1.0, 2.0, and 4.0 mg/kg body weight, single oral dose
Description: The test substance was given to the cattle orally as a single application. The oral treatment was by hand. Because the oral treatment was delivered in capsule form the dosage was very precise.
The observation period can be extended, if necessary based on drug persistence data and residue analysis. The first day of dose application was designated as day 0.
The four dose levels of fipronil for the treatment groups used in this study were as follows: 0.5, 1.0, 2.0 and 4.0 mg/kg. These were weighed with an analytical balance to the nearest 0.01 g and presented in gelatin capsules.
Body weights were recorded individually for all animals during randomization, at the beginning of each week (Monday) during the study period, and at the termination of the study.

N#Cc1nn(-c2c(Cl)cc(C(F)(F)F)cc2Cl)c(N)c1[S+]([O-])C(F)(F)F (stereo not drawn) [fipronil]
Mortality of bloodfeeding adult P. argentipes ([1]; bloodfed on rodents treated as much as 20 days previously, all treatment levels): 100%
Time after 1 hour exposure to 100% mortality of adult P. argentipes ([1]; 50 ppm): 5 days
Time after 1 hour exposure to 100% mortality of adult P. argentipes ([1]; 100 ppm): 3 days
Time after 1 hour exposure to 100% mortality of adult P. argentipes ([1]; 250 ppm): 4 days
Adult sand fly mortality ([1]; bloodfeeding on rodents 1 day after treatment): 100%
Adult sand fly mortality ([1]; bloodfeeding on rodents 5 days after treatment): 100%
Time to death of adult sand flies ([1]; day 1, all treatment groups (50 ppm, 100 ppm, and 250 ppm)): dead by the end of the one hour exposure period
Time to 100% mortality of adult sand flies ([1]; day 5, 50 ppm treatment group): 24 h
Time to death of adult sand flies ([1]; day 5, 250 and 100 ppm treatment groups): dead by the end of the one hour exposure period
Mean ± SEM survival (days) of P. argentipes larvae during exposure to treated feces D-1 ([2]; 50 ppm): 2.66 ± 0.18 days
Mean ± SEM survival (days) of P. argentipes larvae during exposure to treated feces D-5 ([2]; 50 ppm): 4.03 ± 0.27 days
Mean ± SEM survival (days) of P. argentipes larvae during exposure to treated feces D-10 ([2]; 50 ppm): 4.06 ± 0.29 days
Mean ± SEM survival (days) of P. argentipes larvae during exposure to treated feces D-20 ([2]; 50 ppm): 6.36 ± 0.36 days
Mean ± SEM survival (days) of P. argentipes larvae during exposure to treated feces D-1 ([2]; 100 ppm): 2.23 ± 0.11 days
Mean ± SEM survival (days) of P. argentipes larvae during exposure to treated feces D-5 ([2]; 100 ppm): 3.73 ± 0.23 days
Mean ± SEM survival (days) of P. argentipes larvae during exposure to treated feces D-10 ([2]; 100 ppm): 3.70 ± 0.16 days
Mean ± SEM survival (days) of P. argentipes larvae during exposure to treated feces D-20 ([2]; 100 ppm): 3.82 ± 0.21 days
Mean ± SEM survival (days) of P. argentipes larvae during exposure to treated feces D-1 ([2]; 250 ppm): 3.37 ± 0.20 days
Mean ± SEM survival (days) of P. argentipes larvae during exposure to treated feces D-5 ([2]; 250 ppm): 5.13 ± 0.27 days
Mean ± SEM survival (days) of P. argentipes larvae during exposure to treated feces D-10 ([2]; 250 ppm): 2.28 ± 0.10 days
Mean ± SEM survival (days) of P. argentipes larvae during exposure to treated feces D-20 ([2]; 250 ppm): 2.20 ± 0.10 days
Days of exposure to achieve 100% mortality ([2]; feces 5 days after treatment, 50 ppm): 7 days
Larval mortality ([2]; feces 5 days after treatment, 50 ppm, after 2 days of exposure): 23%
Days of exposure to achieve 100% mortality ([2]; feces 5 days after treatment, 100 ppm): 7 days
Larval mortality ([2]; feces 5 days after treatment, 100 ppm, after 2 days of exposure): 22%
Days of exposure to achieve 100% mortality ([2]; feces 5 days after treatment, 250 ppm): 8 days
Larval mortality ([2]; feces 5 days after treatment, 250 ppm, after 3 days of exposure): 23%
Days of exposure to achieve 100% mortality ([2]; feces 10 days after treatment, 50 ppm): 9 days
Larval mortality ([2]; feces 10 days after treatment, 50 ppm, after 2 days of exposure): 16%
Larval mortality ([2]; feces 10 days after treatment, 50 ppm, after 6 days of exposure): 95%
Days of exposure to achieve 100% mortality ([2]; feces 10 days after treatment, 100 ppm): 5 days
Larval mortality ([2]; feces 10 days after treatment, 100 ppm, after 2 days of exposure): 6%
Days of exposure to achieve 100% mortality ([2]; feces 10 days after treatment, 250 ppm): 4 days
Larval mortality ([2]; feces 10 days after treatment, 250 ppm, after 2 days of exposure): 78%
Days of exposure to achieve 100% mortality ([2]; feces 20 days after treatment, 50 ppm): 10 days
Days of exposure to achieve 100% mortality ([2]; feces 20 days after treatment, 100 ppm): 6 days
Larval mortality ([2]; feces 20 days after treatment, 100 ppm (so in the source), after 3 days of exposure): 7%
Larval mortality ([2]; feces 20 days after treatment, 100 ppm, after 2 days of exposure): 14%
Days of exposure to achieve 100% mortality ([2]; feces 20 days after treatment, 250 ppm): 4 days
Larval mortality ([2]; feces 20 days after treatment, 250 ppm, after 2 days of exposure): 85%
Knockdown of larvae ([2]; feces collected 20 days after the rodents were treated): Quick knockdown
Days of exposure to achieve 100% mortality ([2]; feces day 1 post-treatment, 50 ppm): 5 days
Larval mortality ([2]; feces day 1 post-treatment, 50 ppm, after 1 day of exposure): 4%
Days of exposure to achieve 100% mortality ([2]; feces day 1 post-treatment, 100 ppm): 4 days
Larval mortality ([2]; feces day 1 post-treatment, 100 ppm, after 1 day of exposure): 8%
Days of exposure to achieve 100% mortality ([2]; feces day 1 post-treatment, 250 ppm): 6 days
Larval mortality ([2]; feces day 1 post-treatment, 250 ppm, after 2 days of exposure): 18%
Adverse effect from dosing the cattle [3]: no observed adverse effect

Source: patent publication US20170280722A1, “COMPOSITIONS AND METHODS FOR CONTROL OF SAND FLIES AND OTHER BLOOD SUCKING INSECTS” (GENESIS LABORATORIES, INC., priority 2010, published 2017)
